# What was measured:
# Toll-like receptor 7 [1] = target: T1, Toll-like receptor 7 (Mus musculus, UniProt P58681); test: Antagonist activity at TLR7 in mouse splenocytes assessed as inhibition of ssRNA40-induced IL6 production; assay type: cell-based, Splenocyte
# T1 sequence (P58681 whole entry): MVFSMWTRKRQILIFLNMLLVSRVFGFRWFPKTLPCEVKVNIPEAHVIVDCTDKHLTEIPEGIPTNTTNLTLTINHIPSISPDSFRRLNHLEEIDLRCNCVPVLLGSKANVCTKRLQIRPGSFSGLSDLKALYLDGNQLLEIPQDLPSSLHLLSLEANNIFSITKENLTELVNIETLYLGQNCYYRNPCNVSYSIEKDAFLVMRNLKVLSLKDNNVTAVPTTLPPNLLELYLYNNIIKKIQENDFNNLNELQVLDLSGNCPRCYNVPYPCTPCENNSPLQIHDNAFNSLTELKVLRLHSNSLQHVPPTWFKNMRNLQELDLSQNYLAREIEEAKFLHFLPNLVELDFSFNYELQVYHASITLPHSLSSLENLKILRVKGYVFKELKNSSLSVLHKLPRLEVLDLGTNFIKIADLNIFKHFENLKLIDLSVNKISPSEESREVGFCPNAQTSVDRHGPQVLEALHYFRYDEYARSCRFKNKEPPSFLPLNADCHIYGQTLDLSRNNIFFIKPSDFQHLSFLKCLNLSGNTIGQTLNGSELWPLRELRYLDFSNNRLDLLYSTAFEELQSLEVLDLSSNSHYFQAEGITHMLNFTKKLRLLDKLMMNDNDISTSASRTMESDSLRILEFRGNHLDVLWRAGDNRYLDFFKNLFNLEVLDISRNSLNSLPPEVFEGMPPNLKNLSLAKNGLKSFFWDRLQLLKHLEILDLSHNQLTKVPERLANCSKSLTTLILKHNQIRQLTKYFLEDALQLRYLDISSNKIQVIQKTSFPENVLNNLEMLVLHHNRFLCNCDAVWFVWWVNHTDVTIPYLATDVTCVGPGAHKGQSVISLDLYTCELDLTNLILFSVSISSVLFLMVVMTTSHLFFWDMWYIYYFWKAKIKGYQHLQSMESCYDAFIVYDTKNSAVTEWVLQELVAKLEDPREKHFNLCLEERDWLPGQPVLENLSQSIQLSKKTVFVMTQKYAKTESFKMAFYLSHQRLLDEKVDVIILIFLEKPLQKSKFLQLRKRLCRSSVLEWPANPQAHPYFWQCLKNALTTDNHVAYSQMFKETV
# Toll-like receptor 9 [2] = target: T2, Toll-like receptor 9 (Mus musculus, UniProt Q9EQU3); test: Antagonist activity at TLR9 in mouse splenocytes assessed as inhibition of CpG1585-induced IL6 production; assay type: cell-based, Splenocyte
# T2 sequence (Q9EQU3 whole entry): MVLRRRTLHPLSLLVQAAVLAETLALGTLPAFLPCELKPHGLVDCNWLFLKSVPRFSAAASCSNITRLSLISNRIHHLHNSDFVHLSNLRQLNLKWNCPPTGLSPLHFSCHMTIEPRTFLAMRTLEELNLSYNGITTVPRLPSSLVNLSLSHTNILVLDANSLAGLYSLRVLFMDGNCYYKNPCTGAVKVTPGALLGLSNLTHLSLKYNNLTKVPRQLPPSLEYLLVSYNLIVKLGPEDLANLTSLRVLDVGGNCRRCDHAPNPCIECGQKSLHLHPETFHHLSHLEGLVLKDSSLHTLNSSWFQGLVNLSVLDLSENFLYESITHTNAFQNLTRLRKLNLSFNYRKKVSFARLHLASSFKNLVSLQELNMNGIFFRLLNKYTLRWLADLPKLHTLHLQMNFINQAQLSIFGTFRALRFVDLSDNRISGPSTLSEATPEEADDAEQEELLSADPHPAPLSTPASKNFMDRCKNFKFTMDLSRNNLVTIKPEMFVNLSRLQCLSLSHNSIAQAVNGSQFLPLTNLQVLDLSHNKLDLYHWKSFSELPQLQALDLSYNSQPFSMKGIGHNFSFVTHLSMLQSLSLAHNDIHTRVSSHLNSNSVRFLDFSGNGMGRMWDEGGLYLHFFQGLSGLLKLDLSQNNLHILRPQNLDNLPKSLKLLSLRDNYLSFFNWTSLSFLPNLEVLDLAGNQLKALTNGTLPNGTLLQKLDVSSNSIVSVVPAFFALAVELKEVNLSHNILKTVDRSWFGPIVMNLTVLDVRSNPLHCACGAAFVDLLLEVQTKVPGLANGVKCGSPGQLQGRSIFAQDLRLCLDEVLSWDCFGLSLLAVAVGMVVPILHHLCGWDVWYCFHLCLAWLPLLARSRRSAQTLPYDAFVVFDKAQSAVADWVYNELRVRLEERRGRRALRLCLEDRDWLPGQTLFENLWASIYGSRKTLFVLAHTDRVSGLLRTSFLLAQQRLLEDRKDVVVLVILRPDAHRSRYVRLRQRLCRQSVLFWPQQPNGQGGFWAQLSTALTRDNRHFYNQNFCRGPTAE
# Toll-like receptor 9 [3] = target: T3, Toll-like receptor 9 (Homo sapiens, UniProt Q9NR96); test: Antagonist activity at TLR9 in human PBMC assessed as inhibition of ODN2216-induced IFNalpha production; assay type: tissue-based
# T3 sequence (Q9NR96 whole entry): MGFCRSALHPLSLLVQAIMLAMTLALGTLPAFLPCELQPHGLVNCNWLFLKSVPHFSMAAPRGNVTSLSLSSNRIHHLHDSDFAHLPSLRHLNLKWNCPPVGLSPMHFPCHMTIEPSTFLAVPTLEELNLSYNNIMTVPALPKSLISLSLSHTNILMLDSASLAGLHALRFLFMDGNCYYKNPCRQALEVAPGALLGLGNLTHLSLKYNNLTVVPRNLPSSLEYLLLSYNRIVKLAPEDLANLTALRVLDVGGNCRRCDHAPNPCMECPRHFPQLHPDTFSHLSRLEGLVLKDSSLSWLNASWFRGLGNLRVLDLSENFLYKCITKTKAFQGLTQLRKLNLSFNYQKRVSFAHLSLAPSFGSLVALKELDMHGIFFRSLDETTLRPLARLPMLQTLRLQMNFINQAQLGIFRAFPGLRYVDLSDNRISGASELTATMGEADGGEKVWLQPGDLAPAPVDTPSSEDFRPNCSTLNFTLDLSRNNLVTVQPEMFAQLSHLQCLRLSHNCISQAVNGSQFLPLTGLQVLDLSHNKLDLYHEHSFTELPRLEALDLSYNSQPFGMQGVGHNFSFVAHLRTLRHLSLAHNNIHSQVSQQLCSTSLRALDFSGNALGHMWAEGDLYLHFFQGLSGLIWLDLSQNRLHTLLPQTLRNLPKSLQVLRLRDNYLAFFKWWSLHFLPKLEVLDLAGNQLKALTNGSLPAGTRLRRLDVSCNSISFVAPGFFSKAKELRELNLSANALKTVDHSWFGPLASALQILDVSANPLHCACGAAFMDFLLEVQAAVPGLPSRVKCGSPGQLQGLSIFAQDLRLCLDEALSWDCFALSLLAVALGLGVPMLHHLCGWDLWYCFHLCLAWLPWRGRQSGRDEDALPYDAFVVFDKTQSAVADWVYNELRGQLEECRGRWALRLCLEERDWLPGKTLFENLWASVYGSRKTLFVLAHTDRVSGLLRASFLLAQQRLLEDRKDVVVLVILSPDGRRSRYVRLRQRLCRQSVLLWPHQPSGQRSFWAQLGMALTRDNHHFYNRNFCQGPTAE
# [4] = AUC in BALB/c mouse at 20 mg/kg, po; assay type: ADME, organism-based; parameters: dose 20 mg/kg; conditions: in vivo
# [5] = Cmax in BALB/c mouse at 20 mg/kg, po; assay type: ADME, organism-based; parameters: route oral, dose 20 mg/kg; conditions: in vivo
# [6] = Clearance in BALB/c mouse at 5 mg/kg, iv; assay type: ADME, organism-based; conditions: in vivo
# [7] = Volume of distribution at steady state in BALB/c mouse at 5 mg/kg, iv; assay type: ADME, organism-based; conditions: in vivo, read-out: Vdss
# [8] = Terminal half life in BALB/c mouse at 5 mg/kg, iv; assay type: ADME, organism-based; conditions: in vivo, read-out: beta t1/2 (converted)
# [9] = Oral bioavailability in BALB/c mouse at 20 mg/kg; assay type: ADME, organism-based; conditions: in vivo
# [10] = Drug uptake in 129Sv mouse at 30 mg/kg, ip measured after 2 hrs; assay type: ADME, organism-based; conditions: in vivo, read-out: Drug uptake
# [11] = Drug uptake in 129Sv mouse at 5 mg/kg, po measured after 2 hrs; assay type: ADME, organism-based; conditions: in vivo, read-out: Drug uptake
# Toll-like receptor 7 [12] = target: T1, Toll-like receptor 7; test: Antagonist activity at TLR7 in mouse P4H1 cells assessed as inhibition of imiquimod-induced IL6 production; assay type: cell-based
SMILES,IC50 (Toll-like receptor 7 [1]) [µM],IC50 (Toll-like receptor 9 [2]) [µM],IC50 (Toll-like receptor 9 [3]) [µM],AUC [4] [µM·h],Cmax [5] [nM],clearance [6] [mL/min/kg],Vd [7] [L/kg],half-life [8] [h],bioavailability [9] [%],concentration at 2 h [10] [nM],concentration at 2 h [11] [nM],IC50 (Toll-like receptor 7 [12]) [µM]
Cn1nc(-c2ccc(OCC3C[C@H]4CC[C@@H](C3)N4)c(F)c2)c2cnc(N)nc21 (stereo partly specified),0.12,1.2,1.2,–,–,–,–,–,–,–,–,–
Cn1nc(-c2ccc(OCC34CCC(N)(CC3)CC4)c(F)c2)c2cnc(N)nc21,0.038,0.84,2.7,3.05,506,98,15,4.1,36,–,–,–
Cn1nc(-c2ccc(OC[C@H]3CC[C@H](N)CC3)c(F)c2)c2cnc(N)nc21,0.11,1.9,1.4,–,–,–,–,–,–,–,–,–
Cn1nc(-c2ccc(OCC3CC4(CNC4)C3)c(F)c2)c2cnc(N)nc21,–,1.2,6.5,–,–,–,–,–,–,–,–,–
Cn1nc(-c2ccc(OCC3CCNCC3)c(F)c2)c2cnc(N)nc21,0.22,2,3.4,–,–,–,–,–,–,–,–,–
Cn1ncc2c(-c3ccc(OCC45CCC(N)(CC4)CC5)c(F)c3)nc(N)nc21,0.3,0.8,3.7,–,–,–,–,–,–,–,–,–
Cn1nc(-c2ccc(OC[C@H]3CC[C@@H](N)CC3)c(F)c2)c2cnc(N)nc21,0.15,1.2,2.2,–,–,–,–,–,–,–,–,–
Cn1nc(-c2ccc(OCCCC3CCNCC3)c(F)c2)c2cnc(N)nc21,0.097,1.3,2.3,–,–,165,29,5.9,0,1500,–,–
Cc1cc(-c2ccc(OCC34CCC(N)(CC3)CC4)c(F)c2)c2cnc(N)nn12,0.093,0.46,3.4,–,–,–,–,–,–,–,–,–
Cc1cc(-c2cnc(OCC34CCC(N)(CC3)CC4)c(C)c2)c2cnn(C)c2n1,–,–,–,28.9,1400,44,13.8,4.9,150,–,–,–
Cc1cc(-c2ccnc3[nH]ncc23)cnc1OCC12CCC(O)(CC1)CC2,0.055,> 10,> 5,36.3,4370,11,3.1,4.7,43,–,–,–
Cn1nc(-c2ccc(OCC34CCC(O)(CC3)CC4)c(F)c2)c2cnc(N)nc21,1.2,2.8,5.3,–,–,–,–,–,–,–,–,–
Cl.Cn1nc(-c2ccc(OCC34CCC(N)(CC3)CC4)c(F)c2)c2cnc(N)nc21,–,–,–,–,–,–,–,–,–,–,300,–
Cc1cc(-c2nn(C)c3nc(N)ncc23)cnc1OCC12CCC(N)(CC1)CC2,–,–,3.3,2.98,354,96,15,4.1,34,–,–,–
CN1CCN(CCCOc2ccc(-c3nn(C)c4nc(N)ncc34)cc2F)CC1,2,2,–,–,–,–,–,–,–,–,–,0.17

# Source: ChEMBL document CHEMBL4725311, “Discovery of potent, orally bioavailable in vivo efficacious antagonists of the TLR7/8 pathway” (Bioorg Med Chem Lett, 2020)
